Results as given in patent US20240270762A1, “PENICILLIN-BINDING PROTEIN INHIBITORS” (priority 2021, published 2024).
pEC50: −log10 of the molar value. Values after ≈ are worked out from the molar mass of the structure shown.

Key:
A. baumannii PBP1a = target: T1, A. baumannii PBP1a (Acinetobacter baumannii, UniProt A0ABX6CK30); experiment: Bocillin-FL competition binding via gel filtration, A. baumannii PBP1a; settings: competition binding assay using Bocillin-FL via gel filtration; read-out: A. baumannii PBP1a Potency
T1 sequence (A0ABX6CK30 1-851): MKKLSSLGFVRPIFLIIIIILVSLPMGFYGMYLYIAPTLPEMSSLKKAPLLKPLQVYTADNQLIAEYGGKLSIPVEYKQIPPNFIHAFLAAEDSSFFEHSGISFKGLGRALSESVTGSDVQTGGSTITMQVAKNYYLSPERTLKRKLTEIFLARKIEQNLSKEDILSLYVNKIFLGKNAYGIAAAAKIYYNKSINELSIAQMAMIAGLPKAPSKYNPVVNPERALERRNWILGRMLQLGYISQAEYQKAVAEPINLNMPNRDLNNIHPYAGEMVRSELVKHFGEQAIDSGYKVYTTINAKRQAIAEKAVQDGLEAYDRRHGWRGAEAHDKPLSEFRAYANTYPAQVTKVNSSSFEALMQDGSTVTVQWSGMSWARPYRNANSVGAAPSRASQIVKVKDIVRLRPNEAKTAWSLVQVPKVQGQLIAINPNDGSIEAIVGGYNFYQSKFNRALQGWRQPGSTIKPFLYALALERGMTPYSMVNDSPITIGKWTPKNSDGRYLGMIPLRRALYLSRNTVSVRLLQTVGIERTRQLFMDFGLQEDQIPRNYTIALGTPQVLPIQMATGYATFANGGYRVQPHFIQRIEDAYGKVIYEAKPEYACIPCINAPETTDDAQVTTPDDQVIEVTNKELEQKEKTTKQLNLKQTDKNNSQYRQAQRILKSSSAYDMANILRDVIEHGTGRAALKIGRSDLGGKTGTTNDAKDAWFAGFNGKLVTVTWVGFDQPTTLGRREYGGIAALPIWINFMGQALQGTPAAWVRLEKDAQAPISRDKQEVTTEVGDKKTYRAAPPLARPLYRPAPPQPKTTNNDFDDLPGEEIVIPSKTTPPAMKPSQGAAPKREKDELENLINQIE
How it was run: (§1)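 Competitive equilibrium binding; reporter Bocillin-FL. PBP + inhibitor (titration) pre-incubated → Bocillin-FL, 15 min → gel filtration → fluorescence. EC50 from Hill fit of fraction bound vs [inhibitor].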

A. baumannii PBP2 = A. baumannii PBP2 (Acinetobacter baumannii, UniProt D0C8Z9); experiment: Bocillin-FL competition binding via gel filtration, A. baumannii PBP2
Sequence of A. baumannii PBP2 (D0C8Z9 whole entry): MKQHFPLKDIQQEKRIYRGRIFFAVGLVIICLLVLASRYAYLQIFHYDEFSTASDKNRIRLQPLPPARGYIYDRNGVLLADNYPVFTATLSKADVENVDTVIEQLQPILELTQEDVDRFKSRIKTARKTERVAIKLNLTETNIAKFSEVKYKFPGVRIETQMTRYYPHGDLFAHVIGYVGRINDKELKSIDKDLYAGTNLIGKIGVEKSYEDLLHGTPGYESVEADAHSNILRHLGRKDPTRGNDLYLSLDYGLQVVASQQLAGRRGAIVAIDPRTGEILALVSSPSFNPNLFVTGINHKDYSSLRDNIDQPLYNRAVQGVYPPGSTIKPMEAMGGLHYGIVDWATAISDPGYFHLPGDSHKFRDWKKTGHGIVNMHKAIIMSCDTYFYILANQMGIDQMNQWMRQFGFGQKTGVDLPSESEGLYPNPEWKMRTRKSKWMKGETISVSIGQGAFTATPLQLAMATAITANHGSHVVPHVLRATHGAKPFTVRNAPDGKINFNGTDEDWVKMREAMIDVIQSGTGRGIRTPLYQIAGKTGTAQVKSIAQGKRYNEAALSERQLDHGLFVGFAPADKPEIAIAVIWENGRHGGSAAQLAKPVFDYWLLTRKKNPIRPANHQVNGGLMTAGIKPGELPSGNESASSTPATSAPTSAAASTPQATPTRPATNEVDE
How it was run: as §1

A. baumannii ATCC 17978 = experiment: microbe, parasite or virus in culture; format: cell-based; settings: Acinetobacter baumannii, ATCC17978, read-out: MIC, A. baumannii ATCC 17978
A. baumannii ATCC 19606 = experiment: microbe, parasite or virus in culture; format: cell-based; settings: Acinetobacter baumannii, ATCC19606, read-out: MIC, A. baumannii ATCC 19606
P. aeruginosa ATCC 35151 = experiment: microbe, parasite or virus in culture; format: cell-based; settings: Pseudomonas aeruginosa, ATCC35151, read-out: Minimum inhibitory concentration, P. aeruginosa ATCC 35151
[1] = test system: P. aeruginosa (ΔmexAB-oprM); experiment: Broth microdilution MIC in iron-depleted CAMHB (IDM); format: cell-based; settings: Pseudomonas aeruginosa; iron-depleted CAMHB (IDM); […]; read-out: Minimum inhibitory concentration, P. aeruginosa ΔmexAB-oprM
P. aeruginosa CDC-0054 = experiment: microbe, parasite or virus in culture; format: cell-based; settings: Pseudomonas aeruginosa, CDC0054, read-out: Minimum inhibitory concentration, P. aeruginosa CDC-0054
P. aeruginosa CDC-0090 = experiment: microbe, parasite or virus in culture; format: cell-based; settings: Pseudomonas aeruginosa, CDC0090, read-out: Minimum inhibitory concentration, P. aeruginosa CDC-0090
P. aeruginosa CDC-0095 = experiment: microbe, parasite or virus in culture; format: cell-based; settings: Pseudomonas aeruginosa, CDC0095, read-out: Minimum inhibitory concentration, P. aeruginosa CDC-0095
A. baumannii 1258916 = experiment: microbe, parasite or virus in culture; format: cell-based, Acinetobacter baumannii; settings: Acinetobacter baumannii, 1258916, read-out: MIC, A. baumannii 1258916
A. baumannii CDC-0033 = experiment: microbe, parasite or virus in culture; format: cell-based; settings: Acinetobacter baumannii, CDC0033, read-out: MIC, A. baumannii CDC-0033
A. baumannii CDC-0045 = experiment: microbe, parasite or virus in culture; format: cell-based; settings: Acinetobacter baumannii, CDC0045, read-out: MIC, A. baumannii CDC-0045
A. baumannii CDC-0083 = experiment: microbe, parasite or virus in culture; format: cell-based; settings: Acinetobacter baumannii, CDC0083, read-out: MIC, A. baumannii CDC-0083
[2] = test system: B. thailandensis ATCC 700388; experiment: microbe, parasite or virus in culture; format: cell-based; settings: Burkholderia thailandensis, ATCC700388, read-out: Minimum inhibitory concentration (MIC), B. thailandensis ATCC 700388
[3] = test system: B. humptydooensis ATCC BAA-2767; experiment: microbe, parasite or virus in culture; format: cell-based; settings: Burkholderia humptydooensis, ATCCBAA2767, read-out: Minimum inhibitory concentration (MIC), B. humptydooensis ATCC BAA-2767
P. aeruginosa CDC-0110 = experiment: microbe, parasite or virus in culture; format: cell-based; settings: Pseudomonas aeruginosa, CDC0110, read-out: Minimum inhibitory concentration, P. aeruginosa CDC-0110

Compound | pEC50 (A. baumannii PBP1a) | pEC50 (A. baumannii PBP2) | MIC (A. baumannii ATCC 17978) | MIC (A. baumannii ATCC 19606) | MIC (P. aeruginosa ATCC 35151) | MIC [1] | MIC (P. aeruginosa CDC-0054) | MIC (P. aeruginosa CDC-0090) | MIC (P. aeruginosa CDC-0095) | MIC (A. baumannii 1258916) | MIC (A. baumannii CDC-0033) | MIC (A. baumannii CDC-0045) | MIC (A. baumannii CDC-0083) | MIC [2] | MIC [3] | MIC (P. aeruginosa CDC-0110)
CN(CCCN1CCN(C(=O)NC(C(=O)N[C@H]2Cc3ccc(F)c(C(=O)O)c3OB2O)c2cc(F)c(O)c(O)c2Cl)C(=O)C1=O)C(=O)c1cccc(O)c1 (stereo partly drawn) [Example 310, (3R)-3-(2-(2-chloro-5-fluoro-3,4-dihydroxyphenyl)-2-(4-(3-(3-hydroxy-N-methylbenzamido)propyl)-2,3-dioxopiperazine-1-carboxamido)acetamido)-7-fluoro-2-hydroxy-3,4-dihydro-2H-benzo[e][1,2]oxaborinine-8-carboxylic acid] | 3.60 to 4.30 | 4.30 to 5.00 | < 1 µg/mL | < 1 µg/mL | < 1 µg/mL | < 1 µg/mL | < 1 µg/mL | 2 to 4 µg/mL (≈ 2.58 to 5.17 µM) | 2 to 4 µg/mL (≈ 2.58 to 5.17 µM) | < 1 µg/mL | 2 to 4 µg/mL (≈ 2.58 to 5.17 µM) | < 1 µg/mL | < 1 µg/mL | 2 to 4 µg/mL (≈ 2.58 to 5.17 µM) | < 1 µg/mL | < 1 µg/mL
O=C(NCCS(=O)(=O)N1CCN(C(=O)NC(C(=O)N[C@H]2Cc3ccc(F)c(C(=O)O)c3OB2O)c2cc(F)c(O)c(O)c2Cl)C1=O)Nc1ccc(O)cc1 (stereo partly drawn) [Example 289, (3R)-3-(2-(2-chloro-5-fluoro-3,4-dihydroxyphenyl)-2-(3-((2-(3-(4-hydroxyphenyl)ureido)ethyl)sulfonyl)-2-oxoimidazolidine-1-carboxamido)acetamido)-7-fluoro-2-hydroxy-3,4-dihydro-2H-benzo[e][1,2]oxaborinine-8-carboxylic acid] | > 5.00 | 4.30 to 5.00 | < 1 µg/mL | < 1 µg/mL | < 1 µg/mL | < 1 µg/mL | 2 to 4 µg/mL (≈ 2.51 to 5.02 µM) | 2 to 4 µg/mL (≈ 2.51 to 5.02 µM) | 2 to 4 µg/mL (≈ 2.51 to 5.02 µM) | < 1 µg/mL | 2 to 4 µg/mL (≈ 2.51 to 5.02 µM) | 2 to 4 µg/mL (≈ 2.51 to 5.02 µM) | < 1 µg/mL | 8 to 16 µg/mL (≈ 10 to 20.1 µM) | 2 to 4 µg/mL (≈ 2.51 to 5.02 µM) | 2 to 4 µg/mL (≈ 2.51 to 5.02 µM)
O=C(O)c1c(F)ccc2c1OB(O)[C@@H](NC(=O)C(NC(=O)N1CCN(C3CCN(C(=O)c4c(F)ccc(O)c4F)CC3)C(=O)C1=O)c1cc(F)c(O)c(O)c1Cl)C2 (stereo partly drawn) [Example 308, (3R)-3-(2-(2-chloro-5-fluoro-3,4-dihydroxyphenyl)-2-(4-(1-(2,6-difluoro-3-hydroxybenzoyl)piperidin-4-yl)-2,3-dioxopiperazine-1-carboxamido)acetamido)-7-fluoro-2-hydroxy-3,4-dihydro-2H-benzo[e][1,2]oxaborinine-8-carboxylic acid] | 4.30 to 5.00 | > 5.00 | < 1 µg/mL | < 1 µg/mL | < 1 µg/mL | < 1 µg/mL | < 1 µg/mL | 2 to 4 µg/mL (≈ 2.43 to 4.87 µM) | 2 to 4 µg/mL (≈ 2.43 to 4.87 µM) | < 1 µg/mL | 2 to 4 µg/mL (≈ 2.43 to 4.87 µM) | < 1 µg/mL | < 1 µg/mL | 2 to 4 µg/mL (≈ 2.43 to 4.87 µM) | 2 to 4 µg/mL (≈ 2.43 to 4.87 µM) | < 1 µg/mL
O=C(NCCCN1CCN(C(=O)NC(C(=O)N[C@H]2Cc3ccc(F)c(C(=O)O)c3OB2O)c2cc(F)c(O)c(O)c2Cl)C(=O)C1=O)c1cc(O)cc(F)c1 (stereo partly drawn) [Example 410, (3R)-3-(2-(2-chloro-5-fluoro-3,4-dihydroxyphenyl)-2-(4-(3-(3-fluoro-5-hydroxybenzamido)propyl)-2,3-dioxopiperazine-1-carboxamido)acetamido)-7-fluoro-2-hydroxy-3,4-dihydro-2H-benzo[e][1,2]oxaborinine-8-carboxylic acid] | > 5.00 | > 5.00 | < 1 µg/mL | < 1 µg/mL | < 1 µg/mL | < 1 µg/mL | < 1 µg/mL | < 1 µg/mL | 2 to 4 µg/mL (≈ 2.57 to 5.14 µM) | 2 to 4 µg/mL (≈ 2.57 to 5.14 µM) | 2 to 4 µg/mL (≈ 2.57 to 5.14 µM) | < 1 µg/mL | < 1 µg/mL | 2 to 4 µg/mL (≈ 2.57 to 5.14 µM) | > 128 µg/mL | < 1 µg/mL
O=C(NCCCN1CCN(C(=O)NC(C(=O)N[C@H]2Cc3ccc(F)c(C(=O)O)c3OB2O)c2cc(F)c(O)c(O)c2Cl)C(=O)C1=O)c1ccc(F)c(O)c1 (stereo partly drawn) [Example 409, (3R)-3-(2-(2-chloro-5-fluoro-3,4-dihydroxyphenyl)-2-(4-(3-(4-fluoro-3-hydroxybenzamido)propyl)-2,3-dioxopiperazine-1-carboxamido)acetamido)-7-fluoro-2-hydroxy-3,4-dihydro-2H-benzo[e][1,2]oxaborinine-8-carboxylic acid] | > 5.00 | > 5.00 | < 1 µg/mL | < 1 µg/mL | < 1 µg/mL | < 1 µg/mL | < 1 µg/mL | < 1 µg/mL | 2 to 4 µg/mL (≈ 2.57 to 5.14 µM) | 2 to 4 µg/mL (≈ 2.57 to 5.14 µM) | 2 to 4 µg/mL (≈ 2.57 to 5.14 µM) | < 1 µg/mL | < 1 µg/mL | 2 to 4 µg/mL (≈ 2.57 to 5.14 µM) | 8 to 16 µg/mL (≈ 10.3 to 20.6 µM) | < 1 µg/mL
Cc1cc(C(=O)NCCCN2CCN(C(=O)N[C@@H](C(=O)N[C@H]3Cc4ccc(F)c(C(=O)O)c4OB3O)c3cc(F)c(O)c(O)c3Cl)C(=O)C2=O)ccn1 [Example 298, (R)-3-((R)-2-(2-chloro-5-fluoro-3,4-dihydroxyphenyl)-2-(4-(3-(2-methylisonicotinamido)propyl)-2,3-dioxopiperazine-1-carboxamido)acetamido)-7-fluoro-2-hydroxy-3,4-dihydro-2H-benzo[e][1,2]oxaborinine-8-carboxylic acid] | 4.30 to 5.00 | 4.30 to 5.00 | < 1 µg/mL | < 1 µg/mL | < 1 µg/mL | < 1 µg/mL | < 1 µg/mL | < 1 µg/mL | < 1 µg/mL | < 1 µg/mL | 2 to 4 µg/mL (≈ 2.64 to 5.27 µM) | < 1 µg/mL | < 1 µg/mL | < 1 µg/mL | < 1 µg/mL | < 1 µg/mL
O=C(O)c1c(F)ccc2c1OB(O)[C@@H](NC(=O)C(NC(=O)N1CCN(C3CCN(C(=O)c4cncc(O)c4)CC3)C(=O)C1=O)c1cc(F)c(O)c(O)c1Cl)C2 (stereo partly drawn) [Example 425, (3R)-3-(2-(2-chloro-5-fluoro-3,4-dihydroxyphenyl)-2-(4-(1-(5-hydroxynicotinoyl)piperidin-4-yl)-2,3-dioxopiperazine-1-carboxamido)acetamido)-7-fluoro-2-hydroxy-3,4-dihydro-2H-benzo[e][1,2]oxaborinine-8-carboxylic acid] | 4.30 to 5.00 | 4.30 to 5.00 | < 1 µg/mL | < 1 µg/mL | < 1 µg/mL | < 1 µg/mL | < 1 µg/mL | < 1 µg/mL | 2 to 4 µg/mL (≈ 2.54 to 5.08 µM) | < 1 µg/mL | < 1 µg/mL | < 1 µg/mL | 8 to 16 µg/mL (≈ 10.2 to 20.3 µM) | < 1 µg/mL | < 1 µg/mL | < 1 µg/mL
